Several values for one entry are separate records, joined by “and”; a condition that tells them apart may be missing. Equal values may be shown once. Marks after values point to notes of the source that are not given here.
Legend:
[1] = tested on: psoriasis animal model; test: Psoriasis animal model (imiquimod cream induced); format: in vivo, C57/BL 6J mice; conditions: for Inhibition rate of skin thickening: 7th day of treatment
Description: C57/BL 6J mice, 75, female, 7-8 weeks old, weight 18 g-20 g. The animals were from Zhejiang Weitong Lihua Experimental Animal Technology Co., Ltd. (SCXK (Zhejiang) 2019-0001), experimental animal production certificate number 20210107Abzz0619000247; experimental animal use license number: SYXK (Shanghai) 2020-0001 (Via Biotechnology (Shanghai Co., Ltd).
Modeling and administration method: Use depilatory cream to remove hair from an area of about 2 cm×3 cm on the back of each animal. Control the application time of depilatory cream within 2 minutes. Wash the depilated area with warm water, wash off the depilatory agent, and use immediately. Dry the animal's hair with a hair dryer, and place the animal on a constant-temperature electric blanket at 37° C. for 1 h-2 h. After the animal moves freely, it is placed in a cage for normal rearing and recovery for 1 day (if any animal has red, swollen and damaged skin after hair removal, remove it). On the second day, 54 animals with normal skin were selected and randomly grouped according to body weight, with 9 animals in each group, a total of 6 groups. Each animal in the G2-G6 group was evenly applied with 60 mg (60 μL) of 5 wt % imiquimod cream (Aldara) on the back every day for seven consecutive days.
Skin thickness (double-layer): Use a vernier caliper to measure the double-layer thickness of the back skin before drug administration and modeling, and on days 1, 3, 5, and 7 after drug administration.
PASI score: The condition score refers to the clinical PASI scoring standard, and scores three indicators: erythema, scale, and thickness. The total score is 12 points. The scoring standards are as follows:
Erythema: 0 points, none; 1 points, slight: light red; 2 points, moderate: red; 3 points, significant: dark red; 4 points, very obvious: extremely deep red.
Scaling: 0 points, none; 1 point, slight: there are scales on part of the epidermis, mainly fine scales; 2 points, moderate: most of the skin surface is completely or incompletely covered with scales, in a flaky form; 3 points, Significant: almost all skin is covered with scales, and the scales are thick and layered; 4 points, very obvious: all the skin is covered with scales, and the scales are thick and layered.
Plaque thickening degree: 0 points, none: flush with normal skin; 1 points, slight: slightly higher than the skin surface: 2 points, moderate: moderately raised, with round or sloped plaque edges; 3 points, obvious Score: The plaque is hypertrophic and the bulge is obvious; 4 points, very significant: it is highly thickened and the bulge is very obvious.
Skin proliferation inhibition rate (%)=1−[(skin thickness of the treatment group on the 7th day−skin thickness of the blank control group on the 7th day)/skin thickness of the negative control group on the 7th day−skin thickness of the blank control group on the 7th day)]%.
All data are expressed as Mean t SEM. The statistical analysis software SPSS23.0 was used to conduct normal distribution and homogeneity of variance tests on the data. Based on the results, the single-factor analysis of variance method was selected and the homogeneity of variance test was selected based on the results. *P<0.05 will be considered a statistically significant difference.

[2] = Influencing factors test (light, high temperature, high humidity); format: physicochemical
Procedure: The stability of the crystalline form of the present invention under accelerated test conditions was determined. […] Stability testing was conducted under the following conditions, and samples were taken on the 0th day, the 5th day, the 10th day and the 30th day. The content, total impurities, and XRPD patterns of the samples were recorded and compared with the initial data.

[3] = Pharmacokinetic experiment; format: in vivo; conditions: SD rats, single intragastric administration
Procedure: 12 SD rats were divided into two groups, with 6 rats in each group, half male and half female, and each was given a single intragastric administration; blood was collected through the fundus venous plexus at designated time points, and the plasma was separated and stored in a −80° C. refrigerator.
For the above plasma sample, after protein precipitation with acetonitrile, the supernatant was diluted with water and 5 μL was transferred to LC-MS/MS for detection.

[4] = Thermodynamic analysis experiment (heating, XRPD); format: physicochemical; conditions: compared with crystalline form H and crystalline form S
Procedure: Crystalline form H and crystalline form S were heated to appropriate temperatures under N2 protection, and after cooling to room temperature, the XRPD of the solids was measured.

[5] = Solid state stability (HPLC purity, XRPD); format: physicochemical; conditions: for Purity (%): open
Procedure: Purity testing (via HPLC) and crystal form detection (via XRPD) were performed on starting samples, samples stored for one week, and samples stored for two weeks.

[6] = 0.5 mg/kg oral twice a day, Day 0
[7] = 0.5 mg/kg oral twice a day, Day 1
[8] = 0.5 mg/kg oral twice a day, Day 3
[9] = 0.5 mg/kg oral twice a day, Day 5
[10] = 0.5 mg/kg oral twice a day, Day 7
[11] = 1.5 mg/kg oral twice a day, Day 0
[12] = 1.5 mg/kg oral twice a day, Day 1
[13] = 1.5 mg/kg oral twice a day, Day 3
[14] = 1.5 mg/kg oral twice a day, Day 5
[15] = 1.5 mg/kg oral twice a day, Day 7
[16] = 1.5 mg/kg oral twice a day, Day 7, listed as crystalline form A
[17] = 5 mg/kg oral twice a day, Day 0
[18] = 5 mg/kg oral twice a day, Day 1
[19] = 5 mg/kg oral twice a day, Day 3
[20] = 5 mg/kg oral twice a day, Day 5
[21] = 5 mg/kg oral twice a day, Day 7
[22] = 5 mg/kg oral twice a day, Day 7, listed as crystalline form A
[23] = High humidity test (25° C., 90 ± 5% RH), 5 d
[24] = High humidity test (25° C., 90 ± 5% RH), 10 d
[25] = High humidity test (25° C., 90 ± 5% RH), 30 d
[26] = High temperature test (60° C.), 5 d
[27] = High temperature test (60° C.), 10 d
[28] = High temperature test (60° C.), 30 d
[29] = Light test (Illuminance 5000 Lx and UV lamp energy 0.9 W/m^2), 5 d
[30] = Light test (Illuminance 5000 Lx and UV lamp energy 0.9 W/m^2), 10 d
[31] = Light test (Illuminance 5000 Lx and UV lamp energy 0.9 W/m^2), 30 d

**Q.** Which results are given for `C[C@@H](O)c1nc2cnc3[nH]ccc3c2n1N1CCC(CC#N)CC1` [Crystalline form A, (R)-2-(1-(2-(1-hydroxyethyl)imidazo[4,5-d]pyrrolo[2,3-b]pyridine-1(6H)-yl)piperidin-4-yl)acetonitrile]?
**A.** Inhibition rate of skin thickening ([1]; 0.5 mg/kg oral twice a day): 34.6%; Average skin thickness (double layer) [1, 6]: 0.50 ± 0.01 mm; PASI score [1, 6]: 0.0 points; Average skin thickness (double layer) [1, 7]: 0.60 ± 0.01 mm; PASI score [1, 7]: 0.0 points; Average skin thickness (double layer) [1, 8]: 1.57 ± 0.11 mm; PASI score [1, 8]: 6.6 ± 0.69 points; Average skin thickness (double layer) [1, 9]: 1.27 ± 0.1*** mm; PASI score [1, 9]: 5.9 ± 0.79** points; Average skin thickness (double layer) [1, 10]: 1.32 ± 0.09 mm and 1.32 mm; PASI score [1, 10]: 6.1 ± 0.56*** points; PASI score ([1]; 0.5 mg/kg oral twice a day, Day 7, listed as crystalline form A): 6.1 points; Inhibition rate of skin thickening ([1]; 1.5 mg/kg oral twice a day): 56.4%; Inhibition rate of skin thickening ([1]; 1.5 mg/kg oral twice a day, listed as crystalline form A): 56.4%; Average skin thickness (double layer) [1, 11]: 0.50 ± 0.01 mm; PASI score [1, 11]: 0.0 points; Average skin thickness (double layer) [1, 12]: 0.61 ± 0.02 mm; PASI score [1, 12]: 0.0 points; Average skin thickness (double layer) [1, 13]: 1.76 ± 0.15 mm; PASI score [1, 13]: 6.1 ± 0.56 points; Average skin thickness (double layer) [1, 14]: 1.53 ± 0.08** mm; PASI score [1, 14]: 7.0 ± 0.53 points; Average skin thickness (double layer) [1, 15]: 1.15 ± 0.04** mm and 1.15 mm; PASI score [1, 15]: 4.9 ± 0.39*** points; Average skin thickness (double layer) [1, 16]: 1.15 mm; PASI score [1, 16]: 4.9 points; Inhibition rate of skin thickening ([1]; 5 mg/kg oral twice a day): 71.8%; Inhibition rate of skin thickening ([1]; 5 mg/kg oral twice a day, listed as crystalline form A): 71.8%; Average skin thickness (double layer) [1, 17]: 0.50 ± 0.01 mm; PASI score [1, 17]: 0.0 points; Average skin thickness (double layer) [1, 18]: 0.64 ± 0.01 mm; PASI score [1, 18]: 0.0 points; Average skin thickness (double layer) [1, 19]: 1.35 ± 0.10* mm; PASI score [1, 19]: 4.9 ± 0.48 points; Average skin thickness (double layer) [1, 20]: 1.24 ± 0.11*** mm; PASI score [1, 20]: 4.7 ± 0.58*** points; Average skin thickness (double layer) [1, 21]: 1.03 ± 0.03*** mm and 1.03 mm; PASI score [1, 21]: 3.6 ± 0.44*** points; Average skin thickness (double layer) [1, 22]: 1.03 mm; PASI score [1, 22]: 3.6 points; Content (%) ([2]; 0 d): 99.1%; Total impurity ([2]; 0 d): 0.325%; stability under accelerated test conditions (content, total impurities, XRPD) ([2]; 5000Lx light, 60° C., 90% RH±5% RH, 0, 5, 10, 30 days): better stability; Content (%) [2, 23]: 100.1%; Total impurity [2, 23]: 0.32%; Content (%) [2, 24]: 100.1%; Total impurity [2, 24]: 0.31%; Content (%) [2, 25]: 100.1%; Total impurity [2, 25]: 0.32%; Content (%) [2, 26]: 100.2%; Total impurity [2, 26]: 0.34%; Content (%) [2, 27]: 100.4%; Total impurity [2, 27]: 0.33%; Content (%) [2, 28]: 100.3%; Total impurity [2, 28]: 0.35%; Content (%) [2, 29]: 99.5%; Total impurity [2, 29]: 0.34%; Content (%) [2, 30]: 98.9%; Total impurity [2, 30]: 0.36%; Content (%) [2, 31]: 99.4%; Total impurity [2, 31]: 0.43%; bioavailability in the body [3]: high bioavailability; thermodynamic stability [4]: thermodynamically more stable; solid-state stability (conclusion) [5]: good solid-state stability; Purity (%) ([5]; 1 week, 25° C./60% RH): 99.64%; Purity (%) ([5]; 1 week, 40° C./75% RH): 99.62%; Purity (%) ([5]; 1 week, 60° C.): 99.62%; Crystal form changes ([5]; 1 week, 25° C./60% RH, 40° C./75% RH, 60° C.): no change; Purity (%) ([5]; 2 week, 25° C./60% RH): 99.60%; Purity (%) ([5]; 2 week, 40° C./75% RH): 99.60%; Purity (%) ([5]; 2 week, 60° C.): 99.66%; Crystal form changes ([5]; 2 week, 25° C./60% RH, 40° C./75% RH, 60° C.): no change; change in the crystalline form (XRPD) ([5]; after one week and two weeks of storage under the selected conditions): no change; change in purity ([5]; after one week and two weeks under the selected conditions): no significant change; Starting sample Purity (%) ([5]; starting sample): 99.59%
